According to PMC10832398 (Molecular cancer therapeutics, 2023):
“And” between values parts separate entries of the source, which are not always exact repeats. Equal values may be shown once.

What was measured:
HS02 cells = assay: Combination matrix cell viability assay; assay type: cell-based, human
HS01 cells = assay: Combination matrix cell viability assay; assay type: cell-based, human
[1] = test system: phospho-AKT, phospho-FAK, phospho-Src, EphA2, cyclin D1, p21 in HS01 cells; assay: Western blots of whole cell lysates of HS01 cells; assay type: cell-based, human; details: HS01, 24h
[2] = test system: primary human vestibular schwannoma (VS) cells; assay: ApoTox-Glo viability in primary VS cells; assay type: cell-based; details: 96 hrs; omipalisib 16nM; dasatinib 200, 400, and 800nM
[3] = Homo sapiens, 72 h, HS02, single drug within the combination matrix
[4] = Homo sapiens, 72 h, HS01, single drug within the combination matrix
[5] = HS01, single drug within the combination matrix, 72h
[6] = HS02, single drug within the combination matrix, 72h

Q: For Nc1cc(C(F)(F)F)c(-c2cc(N3CCOCC3)nc(N3CCOCC3)n2)cn1 [Buparlisib], which GI50 (HS02 cells; [3]) is on record?
A: 4.9 µM

Q: What about the GI50 (HS01 cells; [4]) of the same molecule?
A: 4.3 µM

Q: Cc1nc(Nc2ncc(C(=O)Nc3c(C)cccc3Cl)s2)cc(N2CCN(CCO)CC2)n1 [Dasatinib, dasatinib] was tested. Which GI50 (HS02 cells; [3]) did it give?
A: > 10 µM

Q: And the GI50 (HS01 cells; [4])?
A: > 10 µM

Q: And the “phosphorylated FAK-Tyr576 and Src-Tyr527” value ([1]; dasatinib 100 and 400nM alone or in combination)?
A: Dose-dependent decreases

Q: Which results are given for CN(C)C1CCN(C(=O)c2ccc(NC(=O)Nc3ccc(-c4nc(N5CCOCC5)nc(N5CCOCC5)n4)cc3)cc2)CC1 [Gedatolisib]?
A: GI50 (HS02 cells; Homo sapiens, 72 h): 0.09 µM; GI50 (HS01 cells; Homo sapiens, 72 h): 0.08 µM

Q: What does the source list for COc1ncc(-c2ccc3nccc(-c4ccnnc4)c3c2)cc1NS(=O)(=O)c1ccc(F)cc1F [Omipalisib, omipalisib]?
A: GI50 (HS01 cells; [5]): 0.02 µM; GI50 (HS01 cells; Homo sapiens, alone in HS01 cells): 0.05 to 0.08 µM; synergistic doses (HS01 cells; omipalisib/dasatinib matrix, Fig. 1A (HS01, HS02)): 39 to 156 nM; reduction in viability (mean fold change of all VS tumors) [2]: ≥ 20%; Cyclin D1 levels ([1]; 0.1 μM): reduced; p21 levels ([1]; 0.1 μM): not observed; Phospho-AKT (T308 and S473) decrease ([1]; omipalisib 4 and 16nM alone or with dasatinib 100 and 400nM): 91-99%; phosphorylated Src-Tyr527 levels compared to vehicle ([1]; omipalisib alone): increased

Q: CN(c1ncccc1CNc1nc(Nc2ccc3c(c2)CC(=O)N3)ncc1C(F)(F)F)S(C)(=O)=O [PF-00562271] was tested. Which GI50 (HS02 cells; [6]) did it give?
A: 6.5 µM and 3.8 µM

Q: Which GI50 (HS02 cells; [3]) does the source give for CNC(=O)c1ccccc1Nc1cc(Nc2ccc(N3CCOCC3)cc2OC)ncc1C(F)(F)F [PND-1186] here?
A: > 10 µM

Q: What about the GI50 (HS01 cells; [4]) of the same molecule?
A: > 10 µM

Q: Which GI50 (HS02 cells; [3]) does the source give for CS(=O)(=O)N1CCN(Cc2cc3nc(-c4cccc5[nH]ncc45)nc(N4CCOCC4)c3s2)CC1 [Pictilisib] here?
A: > 10 µM

Q: How did the GI50 (HS02 cells; [6]) turn out when CNC(=O)c1ccccc1Nc1nc(Nc2ccc(N3CCOCC3)cc2OC)ncc1Cl [TAE226] was run?
A: 2.1 µM

Q: What about the GI50 (HS01 cells; [5]) of the same molecule?
A: 1 µM

Q: CCn1c(=O)c(-c2cc[nH]n2)cc2c(C)nc(N)nc21 [Voxtalisib] was tested. Which GI50 (HS02 cells; [3]) did it give?
A: > 10 µM

Q: And the GI50 (HS01 cells; [4])?
A: > 10 µM
